{"source": "paper PMC11356900", "about": "“Synthesis, Structural Properties and Biological Activities of Novel Hydrazones of 2-, 3-, 4-Iodobenzoic Acid” (Molecules, 2024)", "key": {"[1]": {"system": "Staphylococcus aureus ATCC 29213", "assay": "Broth microdilution MIC/MBC", "conditions": "ATCC29213"}, "[2]": {"system": "T47D cell line", "assay": "MTT cytotoxicity assay", "format": "cell-based", "experimental": "(§1) Among all the newly synthesized compounds, four compounds designated as: 14, 20, 21 and 27 were selected for further testing of their cytotoxic properties at the doses of 10, 25, 50, 75 and 100 µM. The cytotoxic properties of the above compounds were tested on the cancer cell lines, i.e., A549 (ECACC 86012804) (non-small-cell lung cancer), T47D (ECACC 85102201) (breast cancer), HeLa (ATCC® CCL-2™) (cervical cancer) and normal line L929 (NCTC clone 929, ATCC® CCL-1™) (mouse fibroblasts) using the MTT test for 24- and 48 h cultures.\n(§2) A549 (ECACC 86012804) (non-small-cell lung cancer) and T47D (ECACC 85102201) (breast cancer) were obtained from ECACC and propagated in Dulbecco’s Minimal Essential Medium, supplemented with 2 mM of glutamine, antibiotics ([…] streptomycin, 1% of 100 U/L penicillin) and 10% Fetal Bovine Serum. HeLa (ATCC® CCL-2™) (cervical cancer) and L929 (NCTC clone 929, ATCC® CCL-1™) (mouse fibroblasts) cell lines were obtained from ATCC and propagated in the Eagle Minimal Essential Medium supplemented with antibiotics ([…] streptomycin, 1% of 100 U/L penicillin) and with 10% and 5% FBS, respectively. The cell line was routinely grown in 75 cm^2 tissue culture flasks and kept in an incubator (humidified atmosphere of 5% CO2 at 37 °C). All examined cell lines were tested against mycoplasma contamination with microbiological assays.\n(§3) The cell viability of tested compounds (14, 20, 21 and 27) was assessed by the MTT assay. In brief, the exponentially growing cells were plated in 100 μL/well in 96-well plates. After 24 h culturing, the cells were treated with different concentrations of compounds (range 10–100 μM). After 24 and 48 h of incubation, 10 μL of 5 mg/mL MTT was added to each well and the plates were incubated at 37 °C for additional 4 h. The medium was subsequently removed, the purple-colored precipitates of formazan were dissolved in 100 μL of DMSO. The color absorbance was recorded at 570 nm using a BioTek model EPOCH ELISA plate reader. All experiments were performed in triplicate. The absorbance values were in the range of linearity of the Lambert–Beer law."}, "[3]": {"system": "HeLa cell line", "assay": "MTT cytotoxicity assay", "format": "cell-based", "experimental": "as §1, §2, §3"}, "[4]": {"system": "A549 cell line", "assay": "MTT cytotoxicity assay", "format": "cell-based", "experimental": "as §1, §2, §3"}, "[5]": {"system": "Micrococcus luteus ATCC 10240", "assay": "Broth microdilution MIC/MBC", "conditions": "Micrococcus luteus, ATCC10240"}, "[6]": {"system": "Pseudomonas aeruginosa ATCC 9027", "assay": "Broth microdilution MIC/MBC", "conditions": "ATCC9027"}, "[7]": {"system": "Staphylococcus aureus ATCC 43300", "assay": "Broth microdilution MIC/MBC", "conditions": "ATCC43300 / MRSA"}, "[8]": {"system": "Klebsiella pneumoniae ATCC 13883", "assay": "Broth microdilution MIC/MBC", "conditions": "ATCC13883"}, "[9]": {"system": "Staphylococcus epidermidis ATCC 12228", "assay": "Broth microdilution MIC/MBC", "conditions": "ATCC12228"}, "[10]": {"system": "Escherichia coli ATCC 25922", "assay": "Broth microdilution MIC/MBC", "conditions": "ATCC25922"}}, "data": [{"compound": "O=C(N/N=C/c1cc(Br)cc(Br)c1O)c1cccc(I)c1", "note": "[Compound 21, N-[(3,5-dibromo-2-hydroxyphenyl)methylidene]-3-iodobenzohydrazide]", "values": [{"measurement": "MBC", "setting": "[1]", "value": 15.6, "unit": "µg/mL"}, {"measurement": "MIC", "setting": "[1]", "value": 15.6, "unit": "µg/mL"}, {"measurement": "cell proliferation", "setting": "[2]; 24h, 10 µM, Repeat No 1", "value": 82, "unit": "%"}, {"measurement": "cell proliferation", "setting": "[2]; 24h, 10 µM, Repeat No 2", "value": 84, "unit": "%"}, {"measurement": "cell proliferation", "setting": "[2]; 24h, 25 µM, Repeat No 1", "value": 83, "unit": "%"}, {"measurement": "cell proliferation", "setting": "[2]; 24h, 25 µM, Repeat No 2", "value": 88, "unit": "%"}, {"measurement": "cell proliferation", "setting": "[2]; 24h, 50 µM, Repeat No 1", "value": 78, "unit": "%"}, {"measurement": "cell proliferation", "setting": "[2]; 24h, 50 µM, Repeat No 2", "value": 76, "unit": "%"}, {"measurement": "cell proliferation", "setting": "[2]; 24h, 75 µM, Repeat No 1", "value": 71, "unit": "%"}, {"measurement": "cell proliferation", "setting": "[2]; 24h, 75 µM, Repeat No 2", "value": 79, "unit": "%"}, {"measurement": "cell proliferation", "setting": "[2]; 24h, 100 µM, Repeat No 1", "value": 73, "unit": "%"}, {"measurement": "cell proliferation", "setting": "[2]; 24h, 100 µM, Repeat No 2", "value": 78, "unit": "%"}, {"measurement": "cell proliferation", "setting": "[2]; 48h, 10 µM, Repeat No 1", "value": 79, "unit": "%"}, {"measurement": "cell proliferation", "setting": "[2]; 48h, 10 µM, Repeat No 2", "value": 71, "unit": "%"}, {"measurement": "cell proliferation", "setting": "[2]; 48h, 25 µM, Repeat No 1", "value": 79, "unit": "%"}, {"measurement": "cell proliferation", "setting": "[2]; 48h, 25 µM, Repeat No 2", "value": 81, "unit": "%"}, {"measurement": "cell proliferation", "setting": "[2]; 48h, 50 µM, Repeat No 1", "value": 81, "unit": "%"}, {"measurement": "cell proliferation", "setting": "[2]; 48h, 50 µM, Repeat No 2", "value": 79, "unit": "%"}, {"measurement": "cell proliferation", "setting": "[2]; 48h, 75 µM, Repeat No 1", "value": 69, "unit": "%"}, {"measurement": "cell proliferation", "setting": "[2]; 48h, 75 µM, Repeat No 2", "value": 74, "unit": "%"}, {"measurement": "cell proliferation", "setting": "[2]; 48h, 100 µM, Repeat No 1", "value": 78, "unit": "%"}, {"measurement": "cell proliferation", "setting": "[2]; 48h, 100 µM, Repeat No 2", "value": 71, "unit": "%"}, {"measurement": "cell proliferation", "setting": "[3]; 24h, 10 µM, Repeat No 1", "value": 89, "unit": "%"}, {"measurement": "cell proliferation", "setting": "[3]; 24h, 10 µM, Repeat No 2", "value": 88, "unit": "%"}, {"measurement": "cell proliferation", "setting": "[3]; 24h, 25 µM, Repeat No 1", "value": 89, "unit": "%"}, {"measurement": "cell proliferation", "setting": "[3]; 24h, 25 µM, Repeat No 2", "value": 92, "unit": "%"}, {"measurement": "cell proliferation", "setting": "[3]; 24h, 50 µM, Repeat No 1", "value": 86, "unit": "%"}, {"measurement": "cell proliferation", "setting": "[3]; 24h, 50 µM, Repeat No 2", "value": 104, "unit": "%"}, {"measurement": "cell proliferation", "setting": "[3]; 24h, 75 µM, Repeat No 1", "value": 104, "unit": "%"}, {"measurement": "cell proliferation", "setting": "[3]; 24h, 75 µM, Repeat No 2", "value": 87, "unit": "%"}, {"measurement": "cell proliferation", "setting": "[3]; 24h, 100 µM, Repeat No 1", "value": 87, "unit": "%"}, {"measurement": "cell proliferation", "setting": "[3]; 24h, 100 µM, Repeat No 2", "value": 91, "unit": "%"}, {"measurement": "cell proliferation", "setting": "[3]; 48h, 10 µM, Repeat No 1", "value": 86, "unit": "%"}, {"measurement": "cell proliferation", "setting": "[3]; 48h, 10 µM, Repeat No 2", "value": 93, "unit": "%"}, {"measurement": "cell proliferation", "setting": "[3]; 48h, 25 µM, Repeat No 1", "value": 101, "unit": "%"}, {"measurement": "cell proliferation", "setting": "[3]; 48h, 25 µM, Repeat No 2", "value": 97, "unit": "%"}, {"measurement": "cell proliferation", "setting": "[3]; 48h, 50 µM, Repeat No 1", "value": 81, "unit": "%"}, {"measurement": "cell proliferation", "setting": "[3]; 48h, 50 µM, Repeat No 2", "value": 87, "unit": "%"}, {"measurement": "cell proliferation", "setting": "[3]; 48h, 75 µM, Repeat No 1", "value": 91, "unit": "%"}, {"measurement": "cell proliferation", "setting": "[3]; 48h, 75 µM, Repeat No 2", "value": 89, "unit": "%"}, {"measurement": "cell proliferation", "setting": "[3]; 48h, 100 µM, Repeat No 1", "value": 88, "unit": "%"}, {"measurement": "cell proliferation", "setting": "[3]; 48h, 100 µM, Repeat No 2", "value": 92, "unit": "%"}, {"measurement": "cell proliferation", "setting": "[4]; A549, 24h, 10 µM, Repeat No 1", "value": 88, "unit": "%"}, {"measurement": "cell proliferation", "setting": "[4]; A549, 24h, 10 µM, Repeat No 2", "value": 99, "unit": "%"}, {"measurement": "cell proliferation", "setting": "[4]; A549, 24h, 25 µM, Repeat No 1", "value": 88, "unit": "%"}, {"measurement": "cell proliferation", "setting": "[4]; A549, 24h, 25 µM, Repeat No 2", "value": 88, "unit": "%"}, {"measurement": "cell proliferation", "setting": "[4]; A549, 24h, 50 µM, Repeat No 1", "value": 92, "unit": "%"}, {"measurement": "cell proliferation", "setting": "[4]; A549, 24h, 50 µM, Repeat No 2", "value": 101, "unit": "%"}, {"measurement": "cell proliferation", "setting": "[4]; A549, 24h, 75 µM, Repeat No 1", "value": 103, "unit": "%"}, {"measurement": "cell proliferation", "setting": "[4]; A549, 24h, 75 µM, Repeat No 2", "value": 99, "unit": "%"}, {"measurement": "cell proliferation", "setting": "[4]; A549, 24h, 100 µM, Repeat No 1", "value": 87, "unit": "%"}, {"measurement": "cell proliferation", "setting": "[4]; A549, 24h, 100 µM, Repeat No 2", "value": 94, "unit": "%"}, {"measurement": "cell proliferation", "setting": "[4]; A549, 48h, 10 µM, Repeat No 1", "value": 92, "unit": "%"}, {"measurement": "cell proliferation", "setting": "[4]; A549, 48h, 10 µM, Repeat No 2", "value": 99, "unit": "%"}, {"measurement": "cell proliferation", "setting": "[4]; A549, 48h, 25 µM, Repeat No 1", "value": 94, "unit": "%"}, {"measurement": "cell proliferation", "setting": "[4]; A549, 48h, 25 µM, Repeat No 2", "value": 91, "unit": "%"}, {"measurement": "cell proliferation", "setting": "[4]; A549, 48h, 50 µM, Repeat No 1", "value": 97, "unit": "%"}, {"measurement": "cell proliferation", "setting": "[4]; A549, 48h, 50 µM, Repeat No 2", "value": 91, "unit": "%"}, {"measurement": "cell proliferation", "setting": "[4]; A549, 48h, 75 µM, Repeat No 1", "value": 83, "unit": "%"}, {"measurement": "cell proliferation", "setting": "[4]; A549, 48h, 75 µM, Repeat No 2", "value": 87, "unit": "%"}, {"measurement": "cell proliferation", "setting": "[4]; A549, 48h, 100 µM, Repeat No 1", "value": 91, "unit": "%"}, {"measurement": "cell proliferation", "setting": "[4]; A549, 48h, 100 µM, Repeat No 2", "value": 87, "unit": "%"}, {"measurement": "MBC", "setting": "[5]", "value": 15.6, "unit": "µg/mL"}, {"measurement": "MIC", "setting": "[5]", "value": 3.91, "unit": "µg/mL"}, {"measurement": "MIC", "setting": "[6]", "value": "> 1000", "unit": "µg/mL"}, {"measurement": "MBC", "setting": "[7]", "value": 62.5, "unit": "µg/mL"}, {"measurement": "MIC", "setting": "[7]", "value": 15.6, "unit": "µg/mL"}, {"measurement": "MIC", "setting": "[8]", "value": "> 1000", "unit": "µg/mL"}, {"measurement": "MBC", "setting": "[9]", "value": 31.2, "unit": "µg/mL"}, {"measurement": "MIC", "setting": "[9]", "value": 7.81, "unit": "µg/mL"}, {"measurement": "melting point", "value": "210 to 211", "unit": "°C"}, {"measurement": "MIC", "setting": "[10]", "value": "> 1000", "unit": "µg/mL"}]}]}
